Source: patent US10750743B2, “Pyridazinone herbicides” (E.I. DU PONT DE NEMOURS AND COMPANY, priority 2015, dated 2020)

What was measured:
Type in all cases: in vivo
[1] = tested on: blackgrass (Alopecurus myosuroides); experiment: Test A postemergence application, visual injury rating; conditions: 0 to 100 scale, 0 no effect, 100 complete control
Procedure, shortened: (§1)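 Compounds in a surfactant-containing solvent were applied as a directed soil spray preemergence, or postemergence to plants 2-10 cm tall at the one- to two-leaf stage, in loam-sand blend. After about 10 d in the greenhouse, injury was rated visually against untreated controls on a 0-100 scale (100 = complete control).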

[2] = tested on: pigweed (Amaranthus retroflexus); experiment: as above; conditions: 0 to 100 scale, 0 no effect, 100 complete control
Procedure, shortened: as §1

[3] = tested on: barnyardgrass (Echinochloa crus-galli); experiment: as above; conditions: 0 to 100 scale, 0 no effect, 100 complete control
Procedure, shortened: as §1

[4] = tested on: foxtail, giant (giant foxtail, Setaria faberii); experiment: as above; conditions: 0 to 100 scale, 0 no effect, 100 complete control
Procedure, shortened: as §1

[5] = tested on: ragweed (common ragweed, Ambrosia elatior); experiment: as above; conditions: 0 to 100 scale, 0 no effect, 100 complete control
Procedure, shortened: as §1

[6] = tested on: wheat (Triticum aestivum); experiment: as above; conditions: 0 to 100 scale, 0 no effect, 100 complete control
Procedure, shortened: as §1

[7] = tested on: corn (Zea mays); experiment: as above; conditions: 0 to 100 scale, 0 no effect, 100 complete control
Procedure, shortened: as §1

[8] = tested on: kochia (Kochia scoparia); experiment: as above; conditions: 0 to 100 scale, 0 no effect, 100 complete control
Procedure, shortened: as §1

[9] = tested on: ryegrass, It. (Italian ryegrass, Lolium multiflorum); experiment: as above; conditions: 0 to 100 scale, 0 no effect, 100 complete control
Procedure, shortened: as §1

[10] = tested on: galium (catchweed bedstraw, Galium aparine); experiment: as above; conditions: 0 to 100 scale, 0 no effect, 100 complete control
Procedure, shortened: as §1

[11] = tested on: barnyardgrass (Echinochloa crus-galli); experiment: Test B flooded paddy test, visual rating; conditions: Flood, 250 g ai/ha, applied to paddy water, rated after 13 to 15 d
Procedure, shortened: (§2)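 Plants grown to the 2-leaf stage. At treatment, pots were flooded to 3 cm above the soil, compound was applied directly to the paddy water, and that depth was held throughout. After 13 to 15 d in the greenhouse, response was rated visually against controls on a 0 (no effect) to 100 (complete control) scale.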

[12] = tested on: sedge, umbrella (small-flower umbrella sedge, Cyperus difformis); experiment: Test B flooded paddy test, visual rating; conditions: Flood, 250 g ai/ha, applied to paddy water, rated after 13 to 15 d
Procedure, shortened: as §2

[13] = tested on: rice (Oryza sativa); experiment: Test B flooded paddy test, visual rating; conditions: Flood, 250 g ai/ha, applied to paddy water, rated after 13 to 15 d
Procedure, shortened: as §2

[14] = tested on: ducksalad (Heteranthera limosa); experiment: Test B flooded paddy test, visual rating; conditions: Flood, 250 g ai/ha, applied to paddy water, rated after 13 to 15 d
Procedure, shortened: as §2

[15] = tested on: pigweed (Amaranthus retroflexus); experiment: Test A preemergence, directed soil spray, visual injury rating; conditions: 0 is no effect, 100 is complete control
Procedure, shortened: as §1

[16] = tested on: barnyardgrass (Echinochloa crus-galli); experiment: as above; conditions: 0 is no effect, 100 is complete control
Procedure, shortened: as §1

[17] = tested on: foxtail, giant (giant foxtail, Setaria faberii); experiment: as above; conditions: 0 is no effect, 100 is complete control
Procedure, shortened: as §1

[18] = tested on: ragweed (common ragweed, Ambrosia elatior); experiment: as above; conditions: 0 is no effect, 100 is complete control
Procedure, shortened: as §1

[19] = tested on: kochia (Kochia scoparia); experiment: as above; conditions: 0 is no effect, 100 is complete control
Procedure, shortened: as §1

[20] = tested on: ryegrass, It. (Italian ryegrass, Lolium multiflorum); experiment: as above; conditions: 0 is no effect, 100 is complete control
Procedure, shortened: as §1

SMILES | Blackgrass plant response rating ([1]; 125 g ai/ha) | Pigweed plant response rating ([2]; 125 g ai/ha) | Barnyardgrass plant response rating ([3]; 125 g ai/ha) | Foxtail, Giant plant response rating ([4]; 125 g ai/ha) | Ragweed plant response rating ([5]; 125 g ai/ha) | Wheat plant response rating ([6]; 125 g ai/ha) | Corn plant response rating ([7]; 125 g ai/ha) | Kochia plant response rating ([8]; 125 g ai/ha) | Ryegrass, It. plant response rating ([9]; 125 g ai/ha) | Galium plant response rating ([10]; 125 g ai/ha) | Barnyardgrass plant response rating (0 to 100 scale, 0 is no effect, 100 is complete control) [11] | Sedge, Umbrella plant response rating (0 to 100 scale, 0 is no effect, 100 is complete control) [12] | Rice plant response rating (0 to 100 scale, 0 is no effect, 100 is complete control) [13] | Ducksalad plant response rating (0 to 100 scale, 0 is no effect, 100 is complete control) [14] | Plant response rating (0 to 100 scale), Pigweed ([15]; 125 g ai/ha) | Plant response rating (0 to 100 scale), Barnyardgrass ([16]; 125 g ai/ha) | Plant response rating (0 to 100 scale), Foxtail, Giant ([17]; 125 g ai/ha) | Plant response rating (0 to 100 scale), Ragweed ([18]; 125 g ai/ha) | Plant response rating (0 to 100 scale), Kochia ([19]; 125 g ai/ha) | Plant response rating (0 to 100 scale), Ryegrass, It. ([20]; 125 g ai/ha) | further results
COc1ncc(-c2c(O)c(C)nn(C)c2=O)c2ccccc12 [Compound 16] | 0 | 40 | 0 | 0 | 30 | 0 | 0 | 70 | 90 | 70 | 0 | 0 | 0 | 0 | 30 | 0 | 0 | 30 | 40 | 80 | Blackgrass plant response rating ([1]; 500 g ai/ha): 20; Pigweed plant response rating ([2]; 500 g ai/ha): 70; Barnyardgrass plant response rating ([3]; 500 g ai/ha): 10; Foxtail, Giant plant response rating ([4]; 500 g ai/ha): 0; Ragweed plant response rating ([5]; 500 g ai/ha): 70; Wheat plant response rating ([6]; 500 g ai/ha): 0; Corn plant response rating ([7]; 500 g ai/ha): 0; Kochia plant response rating ([8]; 500 g ai/ha): 100; Ryegrass, It. plant response rating ([9]; 500 g ai/ha): 100; Galium plant response rating ([10]; 500 g ai/ha): 100; Plant response rating (0 to 100 scale), Pigweed ([15]; 500 g ai/ha): 100; Plant response rating (0 to 100 scale), Barnyardgrass ([16]; 500 g ai/ha): 0; Plant response rating (0 to 100 scale), Foxtail, Giant ([17]; 500 g ai/ha): 0; Plant response rating (0 to 100 scale), Ragweed ([18]; 500 g ai/ha): 70; Plant response rating (0 to 100 scale), Kochia ([19]; 500 g ai/ha): 100; Plant response rating (0 to 100 scale), Ryegrass, It. ([20]; 500 g ai/ha): 90
CC(=O)Oc1c(C)nn(C)c(=O)c1-c1cncc2ccccc12 [Compound 8] | 0 | 70 | 0 | 0 | 0 | 0 | 0 | 30 | 0 | 10 | 0 | 0 | 0 | 0 | 20 | 0 | 0 | 0 | 0 | 0 | Blackgrass plant response rating ([1]; 500 g ai/ha): 0; Pigweed plant response rating ([2]; 500 g ai/ha): 80; Barnyardgrass plant response rating ([3]; 500 g ai/ha): 20; Foxtail, Giant plant response rating ([4]; 500 g ai/ha): 20; Ragweed plant response rating ([5]; 500 g ai/ha): 0; Wheat plant response rating ([6]; 500 g ai/ha): 0; Corn plant response rating ([7]; 500 g ai/ha): 0; Kochia plant response rating ([8]; 500 g ai/ha): 80; Ryegrass, It. plant response rating ([9]; 500 g ai/ha): 30; Galium plant response rating ([10]; 500 g ai/ha): 80; Plant response rating (0 to 100 scale), Pigweed ([15]; 500 g ai/ha): 70; Plant response rating (0 to 100 scale), Barnyardgrass ([16]; 500 g ai/ha): 0; Plant response rating (0 to 100 scale), Foxtail, Giant ([17]; 500 g ai/ha): 20; Plant response rating (0 to 100 scale), Ragweed ([18]; 500 g ai/ha): 0; Plant response rating (0 to 100 scale), Kochia ([19]; 500 g ai/ha): 0; Plant response rating (0 to 100 scale), Ryegrass, It. ([20]; 500 g ai/ha): 30
Cn1nc(Cl)c(O)c(-c2cccc3[nH]nnc23)c1=O [Compound 38] | 0 | 0 | 0 | 0 | 0 | 0 | 0 | 0 | 0 | 0 | 0 | 0 | 0 | 0 | 0 | 0 | 0 | 0 | 0 | 0 | Blackgrass plant response rating ([1]; 31 g ai/ha): 0; Pigweed plant response rating ([2]; 31 g ai/ha): 0; Barnyardgrass plant response rating ([3]; 31 g ai/ha): 0; Foxtail, Giant plant response rating ([4]; 31 g ai/ha): 0; Ragweed plant response rating ([5]; 31 g ai/ha): 0; Wheat plant response rating ([6]; 31 g ai/ha): 0; Corn plant response rating ([7]; 31 g ai/ha): 0; Kochia plant response rating ([8]; 31 g ai/ha): 0; Ryegrass, It. plant response rating ([9]; 31 g ai/ha): 0; Galium plant response rating ([10]; 31 g ai/ha): 0; Plant response rating (0 to 100 scale), Pigweed ([15]; 31 g ai/ha): 0; Plant response rating (0 to 100 scale), Barnyardgrass ([16]; 31 g ai/ha): 0; Plant response rating (0 to 100 scale), Foxtail, Giant ([17]; 31 g ai/ha): 0; Plant response rating (0 to 100 scale), Ragweed ([18]; 31 g ai/ha): 0; Plant response rating (0 to 100 scale), Kochia ([19]; 31 g ai/ha): 0; Plant response rating (0 to 100 scale), Ryegrass, It. ([20]; 31 g ai/ha): 0
